Reference: article PMC7613515, “Reading and erasing of the phosphonium analogue of trimethyllysine by epigenetic proteins” (Communications Chemistry, 2022)

What was measured:
KDM3AJmjC (T515–S1317) = assay: MALDI-TOF demethylation assay, KDM3AJmjC; assay type: biochemical; settings: 1 hr
Source text: To investigate whether H3KP9me3 can be demethylated by other human KDM4 subfamily members, recombinant KDM4AJmjC (M1–L359) and KDM4DJmjC (M1–L358) were produced in E. coli following an adaption of literature procedures[38],[39]. […] To test the ability of KDM3 and KDM7 subfamily representatives to demethylate H3KP9me2 or H3KP9me3, KDM3AJmjC (T515–S1317) and KDM7BJmjC (M37–N483) were produced using baculovirus/sf9 and E. coli expression systems, respectively[40],[41]. The synthesis of a histone H3 mimic peptide H3KP9me2 substrate is challenging as the tri-alkylated phosphine group is susceptible to oxidation during synthesis of the protected amino acid and during SPPS requiring oxygen-free conditions. Thus, to investigate if KDM3AJmjC or KDM7BJmjC can catalyse demethylation of H3KP9me2, an appropriate H3KP9me2 substrate was prepared in situ from H3KP9me3 using KDM4EJmjC (2.0 µM), in the presence of KDM3AJmjC (2.0 µM) or KDM7BJmjC (2.0 µM).
A Bruker Daltonics MALDI-TOF/TOF AutoflexSpeed machine and Bruker MTP 384 target plates (polished steel BC, Part: 8280781) were used. The machine was controlled using Flex control (v. 3.4 build 135.10) and Compass for flex series (v. 1.4) software. Measurements were in the positive ion mode with the reflectron mode enabled. […] Samples were then analysed by MALDI-TOF. […]

KDM4EJmjC (M1–Q337) = biological target: T1, KDM4EJmjC (M1–Q337) (Homo sapiens, UniProt B2RXH2); assay: MALDI-TOF demethylation assay, KDM4EJmjC; assay type: biochemical
T1 construct: We chose human KDM4EJmjC (M1–Q337); made in house
T1 sequence (B2RXH2 1-337): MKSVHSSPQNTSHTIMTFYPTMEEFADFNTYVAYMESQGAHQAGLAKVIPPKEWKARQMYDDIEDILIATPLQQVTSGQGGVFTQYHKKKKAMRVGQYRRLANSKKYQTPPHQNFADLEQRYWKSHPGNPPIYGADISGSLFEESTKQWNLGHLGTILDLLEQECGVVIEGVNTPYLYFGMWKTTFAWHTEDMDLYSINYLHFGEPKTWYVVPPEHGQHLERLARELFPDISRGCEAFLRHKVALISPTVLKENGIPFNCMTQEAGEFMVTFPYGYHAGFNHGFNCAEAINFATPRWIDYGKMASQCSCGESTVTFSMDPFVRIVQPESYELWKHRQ
Protocol: Reactions were monitored using MALDI-TOF mass spectrometry (Fig. 5b–d).
A Bruker Daltonics MALDI-TOF/TOF AutoflexSpeed machine and Bruker MTP 384 target plates (polished steel BC, Part: 8280781) were used. The machine was controlled using Flex control (v. 3.4 build 135.10) and Compass for flex series (v. 1.4) software. Measurements were in the positive ion mode with the reflectron mode enabled. Incubations employed ProxiPlate-384™ (Perkin Elmer) plates into which was pipetted a solution of [H3_1-15K9me3 (10.0 µM), (+)-sodium L-ascorbate (1.0 mM), (NH4)2Fe(II)(SO4)2 (100 µM), di-sodium 2-oxoglutarate (200 µM) in buffer (HEPES (50 mM)) in MilliQ (pH 7.5)] (5.0 µL) using ClipTip™ (Thermo Scientific™) pipette tips and E1-ClipTip™ (Thermo Scientific™). The enzyme solution [KDM4EJmjC (1.0 µM) in HEPES (50 mM)] (5.0 µL) was added to initiate reaction at 37 °C. Reactions were quenched with formic acid in water (2%, 5.0 µL). Samples were then spotted onto a MALDI-TOF target plate (1.0 µL), MALDI matrix [sat. sol. α-cyano-4-hydroxy-cinnamic acid (10 mg·mL^−1) in {trifluoro acetic acid, acetonitrile and MilliQ (0.1:50:50)}] (1.0 µL) was added, mixed, and dried in air. Samples were then analysed by MALDI-TOF. Specific experiments were supplemented with catalase from bovine liver (C3155-50MG, Merck) (5.0 µM), bovine albumin serum (BSA, Perkin Elmer, CR84-100, DTPA purified 7.5%) (5.0 µM), or Tris(carboxyethyl)phosphine hydrochloride salt (TCEP, M02624, Fluorochem) (500 µM).

## ARTKQTAR(KPme3)STGGKA [H3KP9me3, histone H3 residues 1–15 with trimethylphosphonium lysine analogue at position 9]
KDM3AJmjC (T515–S1317); KDM3AJmjC 2.0 µM plus KDM4EJmjC 2.0 µM, peptide 5.0 µM
  demethylation in combination with KDM4EJmjC: produced H3KP9me2 (due to KDM4EJmjC catalysis), but did not result in masses consistent with H3KP9me1 or H3KP9
KDM3AJmjC (T515–S1317); KDM3AJmjC 2.0 µM, H3KP9me2 prepared in situ with KDM4EJmjC
  demethylation: do not catalyse demethylation of H3K9me3 (as anticipated) or H3KP9me3
KDM4EJmjC (M1–Q337); H3K9me3 (5.0 µM) and H3KP9me3 (5.0 µM) in the same vessel, KDM4EJmjC 0.5 µM
  demethylation in competition assay: no evidence that H3KP9me3 was converted to H3KP9me2 or H3KP9me2O
KDM4EJmjC (M1–Q337); H3K9me3 versus H3KP9me3
  relative substrate quality / rate: demethylation rate is significantly slower for H3KP9me3 than for H3K9me3
KDM4EJmjC (M1–Q337); H3KP9me3: without KDM4EJmjC, Asc, Fe(II) or 2OG, H3K9me3: without Asc and Fe(II), 1 hr
  demethylation in omission controls: little or no H3KP9me2 or H3KP9me2O formation
KDM4EJmjC (M1–Q337); KDM4EJmjC 0.5 µM (H3KP9me3 also at 5.0 µM enzyme), peptide 5.0 or 6.0 µM, Asc 500 µM, Fe(II) 50 µM, 2OG 100 µM
  demethylation: only undergo a single demethylation (−14 Da) to give H3KP9me2
KDM4EJmjC (M1–Q337); KDM4EJmjC 0.5 µM, catalase 5.0 µM, BSA 5.0 µM
  effect of catalase with or without Asc or BSA: did not substantially alter the amounts of H3KP9me2 or H3KP9me2O
KDM4EJmjC (M1–Q337); TCEP as a reducing agent, KDM4EJmjC 0.5 µM
  yield with TCEP rather than Asc: slightly increased yields of H3KP9me2 and H3KP9me2O
KDM4EJmjC (M1–Q337); stoichiometric: KDM4EJmjC 5.0 µM, peptide 5.0 µM
  product formation: faster H3KP9me2 and H3KP9me2O product formation, but no evidence for H3KP9me1 or H3KP9 formation
